pIC50: −log10 of the molar value. In brackets after ≈: the same amount, converted by molar mass.
What was measured:
Escherichia coli = assay: Antibacterial activity against Escherichia coli ATCC 25922 assessed as inhibition of bacterial growth incubated for 16 hrs; type: functional
Pseudomonas aeruginosa = assay: Antibacterial activity against Pseudomonas aeruginosa PAO1 assessed as inhibition of bacterial growth incubated for 16 hrs; type: functional
Staphylococcus aureus [1] = assay: Antibacterial activity against methicillin-susceptible Staphylococcus aureus ATCC 6538 assessed as inhibition of bacterial growth incubated for 16 hrs; type: functional
Staphylococcus aureus [2] = assay: Antibacterial activity against methicillin-resistant Staphylococcus aureus ATCC 33592 assessed as inhibition of bacterial growth incubated for 16 hrs; type: functional
Staphylococcus aureus [3] = assay: Antibiofilm activity against methicillin-susceptible Staphylococcus aureus ATCC 6538 assessed as biofilm eradication incubated for 24 hrs by crystal violet staining based microplate reader assay; type: functional
Staphylococcus aureus [4] = assay: Antibiofilm activity against methicillin-susceptible Staphylococcus aureus ATCC 6538 assessed as inhibition of biofilm formation incubated for 24 hrs by crystal violet staining based microplate reader assay; type: functional
SiHa = assay: Antiproliferative activity against human SiHa cells assessed as inhibition of cell growth incubated for 72 hrs by MTT assay; type: functional, cell-based
Staphylococcus aureus [5] = assay: Antibiofilm activity against methicillin-resistant Staphylococcus aureus ATCC 33592 assessed as inhibition of biofilm formation incubated for 24 hrs by crystal violet staining based microplate reader assay; type: functional
HeLa = assay: Antiproliferative activity against human HeLa cells assessed as inhibition of cell growth incubated for 72 hrs by MTT assay; type: functional, cell-based
COLO 205 = assay: Antiproliferative activity against human COLO 205 cells assessed as inhibition of cell growth incubated for 72 hrs by MTT assay; type: functional, cell-based; conditions: COLO 205, 72 h
COLO 320 = assay: Antiproliferative activity against human COLO 320 cells assessed as inhibition of cell growth incubated for 72 hrs by MTT assay; type: functional, cell-based; conditions: COLO 320, 72 h
Staphylococcus aureus [6] = assay: Antibiofilm activity against methicillin-resistant Staphylococcus aureus ATCC 33592 assessed as biofilm eradication incubated for 24 hrs by crystal violet staining based microplate reader assay; type: functional

Compound | MIC (Escherichia coli) [µM] | MIC (Pseudomonas aeruginosa) [µM] | MIC (Staphylococcus aureus [1]) [µM] | MIC (Staphylococcus aureus [2]) [µM] | MBEC (Staphylococcus aureus [3]) [µM] | MBIC (Staphylococcus aureus [4]) [µM] | pIC50 (SiHa) | MBIC (Staphylococcus aureus [5]) [µM] | pIC50 (HeLa) | pIC50 (COLO 205) | pIC50 (COLO 320) | MBEC (Staphylococcus aureus [6]) [µM]
C=Cc1c(C)c(O)cc2c1CCc1c-2ccc(O)c1C | > 481 | > 481 | 481 (≈ 128 µg/mL) | 481 (≈ 128 µg/mL) | – | – | – | – | – | – | – | –
C=Cc1c(C)c(O)cc2c1ccc1c(C)c(O)ccc12 | > 484 | > 484 | 15.1 (≈ 3.99 µg/mL) | 15.1 (≈ 3.99 µg/mL) | >484 | 15.1 | – | – | – | – | – | –
CC(=O)c1c(C)c(O)cc2c1ccc1c(C)c(O)ccc12 | > 457 | > 457 | 457 (≈ 128 µg/mL) | 457 (≈ 128 µg/mL) | – | – | – | – | – | – | – | –
C#Cc1c(C)c(O)cc2c1CCc1c-2ccc(O)c1C | > 485 | > 485 | 121 (≈ 32.1 µg/mL) | 121 (≈ 32.1 µg/mL) | – | – | 4.60 | – | – | – | – | –
C=Cc1c(C)c(O)c(-c2cc3c(c(C)c2O)CCc2c(C=O)c(C)cc(O)c2-3)c2c1ccc1c(C)c(O)ccc12 | > 121 | > 121 | 60.5 (≈ 32.1 µg/mL) | 121 (≈ 64.2 µg/mL) | – | – | – | – | – | – | – | –
C=Cc1c(C)c(O)cc2c1ccc1c(C)c(Oc3c(O)c(C)c(C=C)c4ccc5c(C)c(O)ccc5c34)ccc12 | > 243 | > 243 | 122 (≈ 64 µg/mL) | 122 (≈ 64 µg/mL) | – | – | – | – | – | – | – | –
C=Cc1c(COC)c(O)cc2c1CCc1c-2ccc(O)c1C | > 413 | > 413 | 413 (≈ 122 µg/mL) | 413 (≈ 122 µg/mL) | – | – | – | – | – | – | – | –
C=Cc1c(C)c(O)cc2c1CCc1c-2cc(-c2cc3c(c(C)c2O)CCc2c-3cc(O)c(C)c2C=C)c(O)c1C | > 121 | > 121 | 60.5 (≈ 32.1 µg/mL) | 60.5 (≈ 32.1 µg/mL) | – | 121 | – | 242 | – | – | – | –
C#Cc1c(CO)c(O)cc2c1CCc1c-2ccc(O)c1C | > 457 | > 457 | 57.1 (≈ 16 µg/mL) | 57.1 (≈ 16 µg/mL) | – | 114.3 | – | – | 4.91 | 4.91 | 4.91 | –
C=Cc1c(C)cc(O)c2c1CCc1c-2ccc(O)c1C | > 480 | > 480 | 30 (≈ 7.99 µg/mL) | 30 (≈ 7.99 µg/mL) | – | 60 | – | 60 | 4.91 | 4.91 | 4.91 | –
C=Cc1c(COC)c(O)cc2c1ccc1c(C)c(O)ccc12 | > 435 | > 435 | 218 (≈ 64 µg/mL) | 218 (≈ 64 µg/mL) | – | – | – | – | – | – | – | –
C=CC1=C(C)C(=O)C=C2c3ccc(O)c(C)c3CC[C@@]21O | > 454 | > 454 | 56.8 (≈ 16 µg/mL) | 56.8 (≈ 16 µg/mL) | – | 113.5 | – | – | – | – | – | –
C#Cc1c(C)c(O)cc2c1ccc1c(C)c(O)ccc12 | > 488 | > 488 | 15.3 (≈ 4.01 µg/mL) | 15.3 (≈ 4.01 µg/mL) | >488 | 15.3 | – | – | – | – | – | –
C=Cc1c(CO)c(O)cc2c1ccc1c(C)c(O)ccc12 | > 229 | > 229 | 114 (≈ 32 µg/mL) | 114 (≈ 32 µg/mL) | – | 114.3 | – | – | – | – | – | –
C=Cc1c(C)cc(O)c2c1CCc1c-2cc(-c2c(O)c(C)c(C=C)c3ccc4c(C)c(O)ccc4c23)c(O)c1C | > 242 | > 242 | 60.5 (≈ 32 µg/mL) | 60.5 (≈ 32 µg/mL) | – | 60.5 | – | 60.5 | 4.91 | 4.91 | 4.91 | –
C=Cc1c(C)c(O)cc2c3c(ccc12)C(C)(O)C(=O)C=C3 (stereo not drawn) | > 458 | > 458 | 229 (≈ 64.2 µg/mL) | 229 (≈ 64.2 µg/mL) | – | – | – | – | – | – | – | –
C#Cc1c(CO)c(O)cc2c1ccc1c(C)c(O)ccc12 | > 230 | > 230 | 57.5 (≈ 16 µg/mL) | 115 (≈ 32 µg/mL) | – | 115 | – | 114.3 | – | – | – | –
C=Cc1c(CO)cc(O)c2c1CCc1c-2ccc(O)c1C | > 454 | > 454 | 114 (≈ 32 µg/mL) | 114 (≈ 32 µg/mL) | – | 227 | – | 227 | 4.91 | 4.91 | 4.91 | –
C=Cc1c(C)c(Oc2c(O)c(C)c(C=C)c3ccc4c(C)c(O)ccc4c23)cc2c1ccc1c(C)c(O)ccc12 | > 121 | > 121 | 60.5 (≈ 31.9 µg/mL) | 60.5 (≈ 31.9 µg/mL) | – | 121 | – | – | – | – | – | –
O=C(O)c1cn(C2CC2)c2cc(N3CCNCC3)c(F)cc2c1=O [CIPROFLOXACIN] | – | 0.37 (≈ 0.123 µg/mL) | 0.37 (≈ 0.123 µg/mL) | 0.37 (≈ 0.123 µg/mL) | >386.7 | 0.75 | – | – | – | – | – | –
CN[C@H](CC(C)C)C(=O)N[C@H]1C(=O)N[C@@H](CC(N)=O)C(=O)N[C@H]2C(=O)N[C@H]3C(=O)N[C@H](C(=O)N[C@H](C(=O)O)c4cc(O)cc(O)c4-c4cc3ccc4O)[C@H](O)c3ccc(c(Cl)c3)Oc3cc2cc(c3O[C@@H]2O[C@H](CO)[C@@H](O)[C@H](O)[C@H]2O[C@H]2C[C@](C)(N)[C@H](O)[C@H](C)O2)Oc2ccc(cc2Cl)[C@H]1O [VANCOMYCIN] | 177 (≈ 256 µg/mL) | 1770 (≈ 2560 µg/mL) | – | 1.38 (≈ 2 µg/mL) | >88.3 | – | – | 1.38 | – | – | – | >88.3

— ChEMBL document CHEMBL5584310, “Phenanthrenes from Juncus articulatus with Antibacterial and Biofilm Formation Inhibitory Activity” (J Nat Prod, 2024)
